Reference: publication PMC6508677, “Identification of druggable small molecule antagonists of the Plasmodium falciparum hexose transporter PfHT and assessment of ligand access to the glucose permeation pathway via FLAG-mediated protein engineering” (PLoS ONE, 2019)

Target: T1, PfHT (Plasmodium falciparum, UniProt Q7KWJ5)
T1 sequence (Q7KWJ5 1-504): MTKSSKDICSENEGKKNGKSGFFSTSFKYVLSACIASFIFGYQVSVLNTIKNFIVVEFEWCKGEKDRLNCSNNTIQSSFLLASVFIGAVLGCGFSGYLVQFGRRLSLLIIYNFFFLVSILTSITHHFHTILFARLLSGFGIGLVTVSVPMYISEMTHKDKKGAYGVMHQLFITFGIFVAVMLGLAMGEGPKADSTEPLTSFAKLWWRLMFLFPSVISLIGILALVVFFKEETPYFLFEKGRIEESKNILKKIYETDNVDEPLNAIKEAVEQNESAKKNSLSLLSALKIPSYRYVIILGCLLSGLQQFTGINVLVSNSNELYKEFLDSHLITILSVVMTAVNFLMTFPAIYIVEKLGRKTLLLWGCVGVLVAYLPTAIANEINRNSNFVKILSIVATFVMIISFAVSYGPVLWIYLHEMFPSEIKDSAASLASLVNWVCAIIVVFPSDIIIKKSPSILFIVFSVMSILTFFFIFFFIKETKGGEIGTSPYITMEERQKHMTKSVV
Test: 2-DG uptake by HEK293 cells overexpressing PfHT
Type: cell-based
Design: expressed in transfected cells; host or cells: HEK293 (HEK293-FLIP, native hGLUT1 knocked down by shRNA)
Details: for remaining activity at 0.001 µM: 0.001 µM compound; for remaining activity at 0.3125 µM: 0.3125 µM compound (0.313 in Fig 1 sheet for WU-1); for remaining activity at 0.625 µM: 0.625 µM compound; for remaining activity at 1.25 µM: 1.25 µM compound; for remaining activity at 2.5 µM: 2.5 µM compound; for remaining activity at 5 µM: 5 µM compound; for remaining activity at 10 µM: 10 µM compound; for remaining activity at 20 µM: 20 µM compound; for remaining activity at 80 µM: 80 µM compound; for remaining activity at 160 µM: 160 µM compound; for remaining activity at 225 µM: 225 µM compound; for IC50: IC50 for inhibition of 2-DG uptake, HEK293 cells overexpressing PfHT, mean/reported value
Text: Generation of HEK293 cells overexpressing PfHT and human GLUTs 1–4 were described elsewhere. Briefly, HEK293 cells were transfected with pcDNA3.1 FLII12Pglu-7006 (Addgene), containing the fluorescence resonance energy transfer (FRET) glucose sensor (HEK293-FLIP) and PfHT, human GLUT1 (hGLUT1), hGLUT2, hGLUT3, hGLUT4, hGLUT5 or hGLUT8 using Optifect (Life Technologies) according to manufacturer’s specifications. To increase retention of GLUT8 at the plasma membrane, the dileucine sorting signal E^7E^8XXXLL was modified to R^7R^8XXXLL as described in [17]. Stable transfectants were selected for G418 and hygromycin resistance to select for FRET sensor and hexose transporter, respectively. HEK293-FLIP cells were also used to generate cells stably transfected with FLAG-tagged PfHT (FTPfHT). FLAG tag ([…]) followed by a triple glycine linker and a tobacco etch virus (TEV) protease site (ENLYFQS) followed by a triple glycine linker was added to the N-terminus of PfHT via PCR [18] using Phusion Hot Start II High-Fidelity DNA Polymerase (Fisher Scientific). Single clones were selected by comparing their abilities to transport glucose as assayed via FRET and radiolabeled hexose uptake. In all cell lines, except for HEK293 cells overexpressing hGLUT1 and hGLUT5, native hGLUT1 was knocked down using shRNA as described elsewhere. Transcript levels of the individual GLUTs expressed in each cell line are as described in [13, 15] and in S1 Fig.
Glucose uptake by P. falciparum was performed essentially as described. P. falciparum strain 3D7 was cultured in 100 mm tissue culture dishes (Techno Plastic Products) in a 2% suspension of human erythrocytes and RPMI 1640 medium until reaching > 7.5% parasitemia. Cells were pelleted via centrifugation and resuspended in RPMI 1640 medium. To determine the uptake of radiolabeled glucose into the parasite, parasites were isolated from infected erythrocytes by permeablization with saponin (0.05 w/v), followed by centrifugation, aspiration of supernatant and washing of the pellet 3X with saline solution (135 mM NaCl, 2 mM KCl, 25 mM HEPES, 0.2 mM glucose and 1 mM MgCl2; pH 7.1) to remove cellular debris. WU-1 or DMSO vehicle were added to 100 μl parasites (resuspended in saline) 5 min prior to the addition of 100 μl [^14C]2-DOG (0.2- μCi/ml final concentration). 2-DG uptake was stopped after 2 min by layering the entire reaction over 300 μl of an oil mixture (5:4 mix of dibutyl phthalate / dinonyl phthalate) in Eppendorf tubes and centrifuged at 15,850 × g for 2 mins. The ratio of the estimated intracellular concentration of radiolabel relative to the extracellular concentration were calculated as described. Uptake of radiolabeled hexose into HEK293 cells was measured in glucose-free HBSS as described previously. Briefly, cells were plated at 400,000 cells/well overnight at 37°C in 24-well plates pre-treated with PEI. After 30-min incubation at 37°C in glucose-free HBSS in the presence of vehicle or increasing concentrations of compound, 2-DG uptake was measured in glucose-free HBSS for 4 min at 37°C. Cultures were washed in ice-cold 1X PBS and lysed in 0.1% Triton X-100 in 1X PBS. Radiolabeled hexose uptake was determined by liquid scintillation counting (Ultima Gold, Thermo Fisher) and normalized to total protein per well. Uptake data are plotted as percent uptake relative to vehicle-treated cells. Kinetic analyses were performed using the indicated concentrations of substrate and WU-1, with quenching of uptake after 1 min incubation. Incubation times had been previously determined as being in the linear range of time-dependent radiolabeled hexose uptake (2 min for 2-DG uptake into freed parasites; 2 and 4 min for D-Frc and 2-DG uptake HEK cell lines, respectively). Data were fit by least squares nonlinear regression analysis using GraphPad Prism 6.0 software.

[1] = HEK293, 4 min, read-out: 2-DG uptake (percent uptake relative to vehicle), AVE, PfHT
[2] = HEK293, 4 min, read-out: % Inhibition of 2-DG uptake vs vehicle

COc1cc(/C=N/NC(=O)c2cc(-c3ccccc3)sc2N)cc(OC)c1OC [WU-3, 2-amino-5-phenyl-N'-[(E)-(3,4,5-trimethoxyphenyl)methylidene]thiophene-3-carbohydrazide]
remaining activity at 0.001 µM [1]: 100% | remaining activity at 0.3125 µM [1]: 109% | remaining activity at 0.625 µM [1]: 104% | remaining activity at 1.25 µM [1]: 103% | remaining activity at 2.5 µM [1]: 104% | remaining activity at 5 µM [1]: 87.6% | remaining activity at 10 µM [1]: 62% | remaining activity at 20 µM [1]: 42.7% | remaining activity at 40 µM (HEK293, 4 min, read-out: 2-DG uptake (percent uptake relative to vehicle), AVE, PfHT, 40 µM compound): 42.2% | remaining activity at 80 µM [1]: 37.1% | remaining activity at 160 µM [1]: 31.1% | remaining activity at 225 µM [1]: 18.9% | inhibition at 10 µM [2]: 51.8% | IC50: 9.2 µM

COc1cc(/C=C2\COC/C(=C\c3cc(OC)c(OC)c(OC)c3)C2=O)cc(OC)c1OC [WU-5, (3E,5E)-3,5-bis[(3,4,5-trimethoxyphenyl)methylidene]oxan-4-one]
remaining activity at 0.001 µM [1]: 100% | remaining activity at 0.3125 µM [1]: 92.8% | remaining activity at 0.625 µM [1]: 89.8% | remaining activity at 1.25 µM [1]: 72.2% | remaining activity at 2.5 µM [1]: 61.4% | remaining activity at 5 µM [1]: 48.9% | remaining activity at 10 µM [1]: 32% | remaining activity at 20 µM [1]: 30.9% | remaining activity at 80 µM [1]: 32.8% | remaining activity at 160 µM [1]: 34.5% | remaining activity at 225 µM [1]: 35.8% | inhibition at 2.5 µM [2]: 47% | IC50: 1.9 µM
